{"source": "patent US20220401564A1", "about": "(DANA-FARBER CANCER INSTITUTE, INC., priority 2019, published 2022)", "tested_on": "other identified HDAC proteins", "experiment": "Change in cellular protein abundance (TMT proteomics) in Kelly cells", "type": "cell-based, human", "conditions": "1 μM, 5 hours, vs DMSO", "protocol": "Lysis buffer (8 M Urea, 50 mM NaCl, 50 mM 4-(2hydroxyethyl)-1-piperazineethanesulfonic acid (EPPS) pH 8.5, protease and phosphatase inhibitors from Roche®) were added to the cell pellets and homogenized by 20 passes through a 21 gauge (1.25 in. long) needle to achieve a cell lysate with a protein concentration between 1-4 mg mL-1. A micro-BCA assay (Pierce™) was used to determine the final protein concentration in the cell lysate. 200 μg of protein for each sample were reduced and alkylated as described in Donovan et al., Elife 7:e38430 (2018).\nProteins were precipitated using methanol/chloroform. Four volumes of methanol were added to the cell lysate, followed by one volume of chloroform, and finally three volumes of water. The mixture was vortexed and centrifuged to separate the chloroform phase from the aqueous phase. […]\nAnhydrous ACN was added to each peptide sample to a final concentration of 30% v/v, and labeling was induced with the addition of TMT reagent to each sample at a ratio of 1:4 peptide:TMT label. […] The sample channels were combined at a 1:1:1:1:1:1:1:1:1:1:1 ratio, desalted using Cis solid phase extraction cartridges (Waters®) and analyzed by LC-MS for channel ratio comparison. Samples were then combined using the adjusted volumes determined in the channel ratio analysis and dried down in a speed vacuum. […]", "data": [{"molecule": "Cc1ncsc1-c1ccc([C@H](C)NC(=O)[C@@H]2C[C@@H](O)CN2C(=O)[C@@H](NC(=O)CCOCCOCCN(CCc2c[nH]c3ccccc23)Cc2ccc(/C=C/C(=O)NO)cc2)C(C)(C)C)cc1", "note": "[Compound 2, (2S,4R)-1-((S)-14-(tert-butyl)-3-(4-((E)-3-(hydroxyamino)-3-oxoprop-1-en-1-yl)benzyl)-1-(1H-indol-3-yl)-12-oxo-6,9-dioxa-3,13-diazapentadecan-15-oyl)-4-hydroxy-N—((S)-1-(4-(4-methylthiazol-5-yl)phenyl)ethyl)pyrrolidine-2-carboxamide]", "values": [{"measurement": "cellular protein levels of the other identified HDAC proteins (heat map FIG. 2)", "result": "did not affect"}]}]}
